Key:
Details in all cases: 72 h
Calu-3 [1] = assay: relative viability EC50 (midpoint between 100% and the lowest measured viability); higher = less toxic
Vero E6 [2] = assay: as above
Caco-2 [3] = assay: drug sensitivity score (DSS) for viability; higher = more toxic; extreme values may be limits of the assay
Calu-3 [4] = assay: as above
Vero E6 [5] = assay: as above
HepG2 [6] = assay: as above
U2OS [7] = assay: as above
Caco-2 [8] = assay: cell viability relative to DMSO; higher = less toxic
Calu-3 [9] = assay: as above
Vero E6 [10] = assay: as above
HepG2 [11] = assay: as above
U2OS [12] = assay: as above
HepG2 [13] = assay: relative viability EC50 (midpoint between 100% and the lowest measured viability); higher = less toxic
Caco-2 [14] = assay: as above

SMILES	relative viability EC50 (Calu-3 [1])	relative viability EC50 (Vero E6 [2])	drug sensitivity score (Caco-2 [3])	drug sensitivity score (Calu-3 [4])	drug sensitivity score (Vero E6 [5])	drug sensitivity score (HepG2 [6])	drug sensitivity score (U2OS [7])	cell viability (Caco-2 [8]; 1 nM)	cell viability (Caco-2 [8]; 10 nM)	cell viability (Caco-2 [8]; 100 nM)	cell viability (Caco-2 [8]; 1000 nM)	cell viability (Caco-2 [8]; 10000 nM)	cell viability (Calu-3 [9]; 1 nM)	cell viability (Calu-3 [9]; 10 nM)	cell viability (Calu-3 [9]; 100 nM)	cell viability (Calu-3 [9]; 1000 nM)	cell viability (Calu-3 [9]; 10000 nM)	cell viability (Vero E6 [10]; 1 nM)	cell viability (Vero E6 [10]; 10 nM)	cell viability (Vero E6 [10]; 100 nM)	cell viability (Vero E6 [10]; 1000 nM)	cell viability (Vero E6 [10]; 10000 nM)	cell viability (HepG2 [11]; 1 nM)	cell viability (HepG2 [11]; 10 nM)	cell viability (HepG2 [11]; 100 nM)	cell viability (HepG2 [11]; 1000 nM)	cell viability (HepG2 [11]; 10000 nM)	cell viability (U2OS [12]; 1 nM)	cell viability (U2OS [12]; 10 nM)	cell viability (U2OS [12]; 100 nM)	cell viability (U2OS [12]; 1000 nM)	cell viability (U2OS [12]; 10000 nM)	relative viability EC50 (HepG2 [13])	relative viability EC50 (Caco-2 [14])
COCCOCCOc1ccc(C2=N[C@@](C)(C(=O)O)CS2)c(O)c1 [SP-420]	> 10 µM	> 10 µM	3	0	0	1.1	1.8	91.5%	92.1%	94.1%	96%	54%	95.1%	102%	103%	95.5%	91.4%	95%	98.5%	98.3%	105%	100%	99.8%	94.7%	93%	102%	70.6%	103%	99.5%	108%	98.5%	65.4%		
O=C(O)CCCC[C@@H]1CCSS1 [thioctic-acid]		> 10 µM			0.8	0												101%	108%	104%	86.5%	90.2%	114%	97.9%	111%	106%	120%						> 10 µM	
COc1cc2c(cc1OC)C(=O)C(CC1CCN(Cc3ccccc3)CC1)C2 (stereo not given) [donepezil]	> 10 µM	> 10 µM	0	0	0.3	0		103%	102%	104%	91.4%	96.4%	91.9%	92.4%	96%	92%	94.1%						114%	106%	98.8%	102%	91.2%						> 10 µM	> 10 µM
Cn1cnc(-c2cc3nccc(Oc4ccc(NC(=S)NC(=O)Cc5ccccc5)cc4F)c3s2)c1 [MGCD-265]		> 10 µM	3.5	3.7	0.6	0.8	2	97%	99.8%	98.3%	84%	63.6%	96.6%	93.1%	100%	86.9%	62.3%	106%	106%	103%	104%	77.3%	103%	92.7%	97.6%	97.9%	80.6%	102%	95.9%	103%	96.5%	67.3%	> 10 µM	
CC(C)(S)C(=O)N[C@@H](CS)C(=O)O [bucillamine]				0	0	0																												
COc1cc(N)cn[n+]1-c1ccccc1 [amezinium]	> 10 µM		0	0				109%	108%	100%	110%	97.8%	97.8%	110%	106%	89.9%	96.6%																	> 10 µM
N[C@@H](CS)C(=O)O [L-cysteine]				0	0	0.2	0																											
CC(=O)[C@@]1(O)CC[C@H]2[C@@H]3C=C(Cl)C4=CC(=O)[C@@H]5C[C@@H]5[C@]4(C)[C@H]3CC[C@@]21C [CYPROTERONE]	> 10 µM	> 10 µM	0	0	0			106%	89.5%	112%	102%	95%	99.5%	101%	103%	86.6%	97.4%	101%	107%	99.5%	104%	94.9%												> 10 µM
CCOC(=O)c1ncc2[nH]c3ccc(OCc4ccccc4)cc3c2c1COC		> 10 µM	4.3	1	0.3	9	3.1	99.8%	97%	90.6%	79.1%	63.7%	110%	89.2%	96.6%	104%	70.9%	91.9%	97.3%	87.9%	93.5%	85%	102%	105%	101%	69.5%	14.1%	96%	94.9%	99%	90.9%	64.7%	1.27 µM	
CC(=O)NS(=O)(=O)c1ccc(N)cc1 [sulfacetamide]				0	0	0																												
CCCN1CC(NS(=O)(=O)N(CC)CC)CC2Cc3c(O)cccc3CC21 (stereo not given) [quinagolide]	> 10 µM		0	0.3				107%	104%	106%	98.9%	96.3%	85.9%	110%	95.8%	97.5%	86.1%																	> 10 µM
O=C(O)Cc1cc2ccccc2nc1C(=O)O [CCMQ]			0			0		106%	111%	103%	98.2%	98.4%											107%	110%	95.6%	109%	96.9%						> 10 µM	> 10 µM
Nc1nc(O)c2nc(Br)n([C@@H]3O[C@@H]4COP(=O)(O)O[C@H]4[C@H]3O)c2n1 [8-bromo-cGMP]	> 10 µM			0		0							105%	94.3%	107%	90.5%	113%						101%	103%	94.6%	110%	108%						> 10 µM	
